Assay [1] has as its system matrix M2 protein. Also noted: species or system influenza A (H3N2) virus.
For assay [2], the system named is NA of influenza A (H1N1) virus isolate. It counts as biochemical. The following applies: read-out: Susceptibility to oseltamivir (mean IC50 ± SD).
Assay [3] concerns NA of influenza A (H3N2) virus isolates. It counts as biochemical. As to conditions: read-out: Susceptibility to oseltamivir (mean IC50 ± SD).

As to `NC12CC3CC(CC(C3)C1)C2` [amantadine], the “Susceptibility to adamantanes (S31N mutation in M2 protein)” value in assay [1] is given as “resistance”.
One may read the IC50 as the concentration needed to halve the response being measured. `CCOC(=O)C1=C[C@@H](OC(CC)CC)[C@H](NC(C)=O)[C@@H](N)C1` [oseltamivir]: the IC50 was found to be […] in assay [2] and […] in assay [3].
